Patent publication US20230233695A1, “MITHRAMYCIN A NANOPARTICLES FOR CANCER TREATMENT” (priority 2021, published 2023)
Read-outs that look alike come from different tables or passages of the source.

Experiments:
HepG2 = assay: XTT cell viability assay, HepG2; assay type: cell-based, human
Procedure: (§1) Cell viability assays. For viability assays, four EWS:Fli1 fusion tumor cell lines (RD-ES, SK-ES-1, A673, and TC-71), one human embryonic kidney cell line (293.T), one ES tumor cell line with ERG fusion (CHLA-25), one fetal kidney cell line (HEK293.T), one hepatoblastoma cell line (HepG2), one chronic myeloid leukemia (MEG-01), and one acute monocytic leukemia (THP-1) cell line were plated at 5000 cells/well in 100 μL growth media in 96-well plates. After overnight incubation, 50 μL of growth media containing mithramycin A (MithA) (Cayman Chemical, Ann Arbor, Mi. Item Number 11434) or boronic acid-conjugated nano-MithA (MANP) (0.12 nM to 500 nM, final) or dimethyl sulfoxide (DMSO, 0.01% v/v) vehicle was added to the wells, and cell viability assays were performed 72 hours later. The cells were incubated with the activated-XTT solution (mixture of 2% final concentration of activation reagent with the XTT reagent) from ATCC (Catalog Number 30-1011K, XTT Cell Proliferation Assay Kit) for 3 hours prior to recording absorbance. The cell viability was determined by measuring the absorbance wavelength at 475 nm and reference wavelength at 650 nm on an Infinite M200 plate reader (Tecan Group, Ltd. Mannedorf, Switzerland). […]

MEG-01 = assay: XTT cell viability assay, MEG-01; assay type: cell-based; details: read-out: Viability IC50, MEG-01, chronic myeloid leukemia, BRC:ABL, 72 hours
Procedure: as §1

Female C57BL/6J mice [1] = assay: In vivo toxicity: serum chemistry
Procedure: (§2) In vivo toxicity of MithA and MANP. Cohorts of n=6-7 C57BL/6J females, 8-10 wko were randomized to receive either intravenous or intraperitoneal administration of saline control vehicle, blank polymer, MithA, or MANP as described in TABLES 2A and 2B. Body weight loss exceeding 20%, death, morbidity, changes in behavior, and any other sign of local or systemic toxicity were recorded.
For serum chemistry blood was collected through a 20G needle 24 h after the last dose, by cardiac puncture under isoflurane anesthesia. The blood was distributed to EDTA-coated (100 uL) or clot-activator (>200 uL) Multivette-600 tubes (Sarstedt, Newton, N.C.) respectively for hematology and serum chemistry analyses. For serum isolation, blood allowed to clot at room temperature for at least 20 minutes, centrifuged 10 kG for 10 minutes, aliquoted and frozen at −80° C. until analysis on a VetScan VS2 instrument (Zoetis, Parsippany-Troy Hills, N.J.) with Zoetis Preventive Profile Plus panel for chemistry.

SK-ES-1 = assay: XTT cell viability assay, SK-ES-1; assay type: cell-based; details: Homo sapiens, SK-ES1, 72 h, read-out: Viability IC50
Procedure: as §1

Female C57BL/6J mice [2] = assay: In vivo toxicity: liver weight and histopathology
Procedure: as §2
The liver was harvested for histopathological assessment, weighed, and fixed in 4% paraformaldehyde for 24 hours in the 4° C. and processed for and embedded in paraffin. After embedding, sections were cut at […] thickness and mounted on poly-L-lysine-coated glass slides. Sections were stained with Ehrlich's Hematoxylin and Eosin-Phloxine solutions, Periodic Acid-Schiff (+/− pretreatment with 1% Diastase for 30 min), or Hall's Bile stain with Picrosirius red counter stain. Slides were then dehydrated, cover slipped and imaged on Nikon E800 microscope for qualitative assessment of liver injury. In vivo toxicity of Mitha and MANP study design. (A) study design for supplemental figures. (B) study design for FIGS. 11A-11Q.

HEK293.T = assay: XTT cell viability assay, HEK293.T; assay type: cell-based; details: Homo sapiens, HEK-293T, 72 h, read-out: Viability IC50
Procedure: as §1

EWS:Fli1+ cells = details: previous study; read-out: average IC50 in EWS:Fli1 cell lines, previous study; cited from earlier work
NR0B1 = assay: RT-qPCR, NR0B1 mRNA expression; assay type: cell-based; details: 10 nM, 3 cell lines tested
Procedure: Assessment of mRNA expression by RT-qPCR. Total RNA was extracted from EWS:Fli1^+ cell cultures (TC-71, A673, and RD-ES) exposed to 10 nM of MithA/MANP (final concentration) or DMSO, (0.01% v/v) vehicle and blank polymer for 24 hours by the RNeasy technique with RNeasy columns with on-column DNAse I digestion (Qiagen, Valencia, Calif.) according to the manufacturer's instructions. The concentration and purity of the extracts were determined by UV absorbance at 230/260/280/320 nm wavelengths using a Tecan Infinite M200 spectrophotometer. Template cDNA was synthesized from […] of RNA extract by reverse-transcription using the Quantitect RT kit (Qiagen). Oligonucleotide primer sequences and more detailed information described in Supplemental Table S4). RT-PCR was performed using Quantitect SYBR-green qPCR reagents in a Mastercycler ep Realplex2 instrument (Eppendorf AG, Hamburg, Germany). […] Relative quantification of mRNA expression between MithA/MANP or vehicle/blank polymer treated cells were semi-quantitatively calculated by comparing the average threshold cycle (Ct) for the treated samples to the average Ct for untreated samples (Vehicle or blank polymer. Amplification efficiency was determined for each primer set, and the Pfaffl equation to determine relative fold change in gene expression. Beta-actin was used as the housekeeping gene for normalization.

[3] = human, in vivo; cited from earlier work
CHLA-25 = assay: XTT cell viability assay, CHLA-25; assay type: cell-based; details: 72 h, read-out: Viability IC50
Procedure: as §1

[4] = 5x2 mg/kg i.v., compared to saline vehicle
[5] = 5x4 mg/kg i.p., relative to saline vehicle
[6] = five doses 2 mg/kg (eq) on alternating days

Q: For `CO[C@H](C(=O)[C@@H](O)[C@@H](C)O)[C@@H]1Cc2cc3cc(O[C@H]4C[C@@H](O[C@H]5C[C@@H](O)[C@H](O)[C@@H](C)O5)[C@H](O)[C@@H](C)O4)c(C)c(O)c3c(O)c2C(=O)[C@H]1O[C@H]1C[C@@H](O[C@H]2C[C@@H](O[C@H]3C[C@](C)(O)[C@H](O)[C@@H](C)O3)[C@@H](O)[C@@H](C)O2)[C@H](O)[C@@H](C)O1` [MithA, (2S,3S)-2-[(2S,4R,5R,6R)-4-[(2S,4R,5S,6R)-4-[(2S,4S,5R,6R)-4,5-dihydroxy-4,6-dimethyloxan-2-yl]oxy-5-hydroxy-6-methyloxan-2-yl]oxy-5-hydroxy-6-methyloxan-2-yl]oxy-3-[(1 S,3S,4R)-3,4-dihydroxy-1-methoxy-2-oxopentyl]-6-[(2S,4R,5R,6R)-4-[(2S,4R,5S,6R)-4,5-dihydroxy-6-methyloxan-2-yl]oxy-5-hydroxy-6-methyloxan-2-yl]oxy-8,9-dihydroxy-7-methyl-3,4-dihydro-2H-anthracen-1-one], which IC50 (HepG2; Homo sapiens, HepG2, 72 h, read-out: Viability IC50, HepG2, hepatoblastoma) is on record?
A: 0.0249 µM

Q: What about the IC50 (HepG2; read-out: Viability IC50, HepG2, hepatoblastoma, 72 hours) of the same molecule?
A: 0.0249 µM

Q: What about the IC50 (MEG-01) of the same molecule?
A: 0.0378 µM

Q: And the glucose level (Female C57BL/6J mice [1]; 5 consecutive days i.p. 1 mg/kg, vs saline (p=0.005))?
A: decreased

Q: What about the liver toxicity (Female C57BL/6J mice [1]; 5x2 mg/kg (eq.) i.v. alternating days) of the same molecule?
A: led to hepatoxicity

Q: What about the “decrease in glucose serum level” value (Female C57BL/6J mice [1]; [4]) of the same molecule?
A: 1.9 fold

Q: What about the “increase in ALT” value (Female C57BL/6J mice [1]; [4]) of the same molecule?
A: 20.9 fold

Q: What about the “increase in AST” value (Female C57BL/6J mice [1]; [4]) of the same molecule?
A: 4.1 fold

Q: And the “increase in total bilirubin” value (Female C57BL/6J mice [1]; [4])?
A: 1.5 fold

Q: What about the “decrease in glucose level” value (Female C57BL/6J mice [1]; [5]) of the same molecule?
A: 1.9 fold

Q: What about the “increase of alanine transaminase (ALT)” value (Female C57BL/6J mice [1]; [5]) of the same molecule?
A: 16.9 fold

Q: What about the “increase of aspartate aminotransferase (AST)” value (Female C57BL/6J mice [1]; [5]) of the same molecule?
A: 5.4 fold

Q: What about the “kidney injury or electrolyte imbalance” value (Female C57BL/6J mice [1]; five i.v. injections on alternating days, any treatment group) of the same molecule?
A: no evidence of kidney injury or electrolyte imbalance

Q: And the “changes in serum chemistry” value (Female C57BL/6J mice [1]; single i.p. 4 mg/kg)?
A: no significant changes

Q: What about the “increase in ALT liver enzyme level” value (Female C57BL/6J mice [1]; single i.v. 4 mg/kg, in comparison to equivalent dose of MANP (p=0.0381)) of the same molecule?
A: 1.7 fold

Q: What about the IC50 (SK-ES-1) of the same molecule?
A: 0.0119 µM

Q: What about the liver weight (Female C57BL/6J mice [2]; 5 consecutive days i.p. 4 mg/kg, vs saline) of the same molecule?
A: liver weight reduction

Q: And the liver weight (Female C57BL/6J mice [2]; 5x2 mg/kg i.v. alternating days)?
A: liver weight reduction

Q: And the liver histology (Female C57BL/6J mice [2]; 5x4 mg/kg i.p.)?
A: periportal necrosis with central fatty degeneration, glycogen depletion and bile acid retention

Q: And the “liver histology, Hall's bile stain” value (Female C57BL/6J mice [2]; [6])?
A: retention of bile in large vacuoles

Q: And the “liver histology, Hematoxylin and Eosin stain” value (Female C57BL/6J mice [2]; [6])?
A: periportal hepatocellular necrosis and infiltrates of inflammatory cells, and distension of collecting ducts

Q: What about the “liver histology, Periodic Acid-Schiff (glycogen)” value (Female C57BL/6J mice [2]; five doses 2 mg/kg on alternating days) of the same molecule?
A: glycogen depletion

Q: What about the IC50 (HEK293.T) of the same molecule?
A: 0.0904 µM

Q: And the IC50 (EWS:Fli1+ cells)?
A: 0.012 µM

Q: And the “NR0B1 mRNA expression” value (NR0B1)?
A: unable to detect significant inhibition

Q: And the “ALT and AST elevations, increase in geometric mean” value [3]?
A: greater than 13 fold

Q: And the “treated patients who developed hepatotoxicity” value [3]?
A: 10/12

Q: And the IC50 (CHLA-25)?
A: 0.349 µM
